Measurements from PMC7997574, “Lead Optimization of Benzoxazolone Carboxamides as Orally Bioavailable and CNS Penetrant Acid Ceramidase Inhibitors” (Journal of Medicinal Chemistry, 2020).
Converted amounts (≈) assume the structure as drawn. Structures can show the parent of a compound that is named as a salt. Where two headings read alike, the source gives them in different places.

Key:
AC = biological target: T1, AC (Homo sapiens, UniProt Q13510); assay: Fluorogenic hAC assay on hAC-enriched lysate of HEK293 cells; assay type: biochemical; design: expressed in transfected cells; conditions: for fold more potent than 23e (hAC): vs 23e hAC IC50 = 0.363 μM
T1 sequence (Q13510 22-395): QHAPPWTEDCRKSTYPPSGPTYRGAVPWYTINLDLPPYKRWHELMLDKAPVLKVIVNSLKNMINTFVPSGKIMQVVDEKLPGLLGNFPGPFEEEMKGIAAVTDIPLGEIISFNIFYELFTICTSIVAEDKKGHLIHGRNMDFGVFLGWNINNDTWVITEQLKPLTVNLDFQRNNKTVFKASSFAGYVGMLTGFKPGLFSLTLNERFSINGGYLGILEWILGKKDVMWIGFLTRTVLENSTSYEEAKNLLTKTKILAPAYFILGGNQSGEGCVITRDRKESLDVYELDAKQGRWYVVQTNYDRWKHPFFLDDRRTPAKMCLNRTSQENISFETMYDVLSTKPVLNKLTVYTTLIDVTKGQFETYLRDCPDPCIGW
Description: HEK293 cells stably expressing hAC were grown in Dulbecco’s modified Eagle medium (DMEM) containing 10% FBS, 1% glutamine, 1 mM sodium pyruvate, and 500 μg mL^–1 G418. Cells were harvested, and pellets were stored at −80 °C until lysosomal-enriched lysate preparation. Cells were suspended in 20 mM Tris HCl (pH 7.5) with 0.32 M sucrose, sonicated, and centrifuged at 800 × g for 30 min at 4 °C. Supernatants were then centrifuged at 12000 × g for 30 min at 4 °C. Pellets were resuspended in PBS (pH 7.4) and subjected to three freeze–thaw cycles at −80 °C. The suspension was finally centrifuged at 105000 × g for 1 h at 4 °C, and protein concentration was measured in the supernatant with the bicinchoninic acid based protein assay. This hAC-enriched preparation allowed us to further optimize the enzymatic assay and to use small amounts of lysate (2 μg per well) at a 5 μM substrate (Rbm14–12) around its KM (KM = 5.0 μM).
The assay was performed in Optiplate 96-well black plates, with each reaction well containing a mixture of 25 mM NaOAc buffer (pH 4.5) and a fixed amount of protein (2 μg) in a volume of 85 μL. After 10 min of preincubation with test compounds (diluted 20× from DMSO stock solutions at different concentrations), the fluorogenic probe was added (diluted 40× from EtOH stock solution, final concentration 5 μM). After 3 h of incubation at 37 °C, reactions were stopped with 50 μL of MeOH and 100 μL of a 2.5 mg mL^–1 NaIO4 fresh solution in 100 mM glycine/NaOH buffer (pH 10.6). The plates were further incubated for 2 h at 37 °C in the dark, and fluorescence intensities were measured at excitation/emission wavelengths of 355/460 nm. Negative control samples consisted of the same incubation mixture in the absence of protein-enriched extracts. Data were plotted as a function of compound concentrations. IC50 values were calculated by nonlinear regression analysis using GraphPad Prism 5 (GraphPad Software Inc., CA, USA) applying a standard slope curve fitting. The reported IC50 values are the mean of at least three independent experiments performed in three technical replicates.

[1] = Chemical stability assay in PBS pH 7.4; assay type: physicochemical; conditions: phosphate-buffered saline, read-out: chemical stability t1/2
Description: Chemical stability of selected compounds was evaluated under physiological pH conditions (0.01 M phosphate-buffered saline, pH 7.4) for up to 8 h. The buffer was added with 10% MeCN. Stock solutions of each compound (10 mM) were freshly prepared in MeCN. Each compound was incubated at a final concentration of 1 μM in preheated buffer (37 °C). The sample solutions were divided into aliquots in glass vials (preheated at 37 °C) for each time point. The samples were maintained at 37 °C in the UPLC/MS autosampler during the study (no shaking). A reference solution of each compound (final concentration: 1 μM) in preheated MeCN was prepared from the stock solutions and maintained at 37 °C in the UPLC/MS autosampler during the study. For each time point, the samples were analyzed directly by LC/MS without any further sample preparation. The samples were analyzed by integrating the corresponding MRM peak areas. The relative compound concentration was calculated by dividing the peak area at each time point by the peak area at t = 0 min. The reference solution was analyzed at the beginning (t = 0 min) and at the end of the study (t = 8 h). The apparent half-life (t1/2) of the disappearance of the compound was calculated using the best fitting equation by GraphPad Prism (GraphPad Software, Inc., USA). The analyses were performed on a Waters ACQUITY UPLC/MS TQD system consisting of a triple quadrupole detector (TQD) MS equipped with an ESI interface and a photodiode array detector. The analyses were run on an ACQUITY UPLC BEH C18 1.7 μm 2.1 × 50 mm column with a VanGuard BEH C18 1.7 μm preolumn at 40 °C. For each compound, the appropriate mobile phase was chosen. ESI was applied in positive mode. Values are the mean of at least two independent experiments performed in two technical replicates.

[2] = In vitro plasma stability study; assay type: in vitro ADME; conditions: mouse plasma
Description: Freshly prepared 10 mM MeCN stock solution of test compound was diluted 50-fold with DMSO/H2O (1:1) and incubated at 37 °C for 2 h with mouse plasma added in 5% DMSO (preheated at 37 °C for 10 min). The final concentration was 2 μM. At each time point (0, 5, 15, 30, 60, and 120 min), 50 μL of incubation mixture was diluted with 200 μL of cold MeCN spiked with 200 nM internal standard followed by centrifugation at 3300 × g for 20 min. The supernatant was further diluted with H2O (1:1) for analysis. The concentration of test compound was quantified by LC/MS/MS on a Waters ACQUITY UPLC/MS TQD system consisting of a TQD MS equipped with an ESI interface. The analyses were run on an ACQUITY UPLC BEH C18 (50 × 2.1 mm ID, particle size 1.7 μm) with a VanGuard BEH C18 precolumn (5 × 2.1 mm ID, particle size 1.7 μm) at 40 °C. For each compound, the appropriate mobile phase was chosen. ESI was applied in positive mode. The response factors, calculated on the basis of the internal standard peak area, were plotted over time. When possible, response vs time profiles were fitted with Prism (GraphPad Software, Inc., USA) to estimate compound t1/2 in plasma. Values are the mean of at least two independent experiments performed in two technical replicates.

[3] = Aqueous kinetic solubility assay; assay type: physicochemical; conditions: PBS, pH 7.4
Description: The aqueous kinetic solubility was determined from a 10 mM MeCN stock solution of test compound in Phosphate-Buffered Saline (PBS) at pH 7.4. The study was performed by incubation of an aliquot of 10 mM MeCN stock solution in PBS (pH 7.4) at a target concentration of 250 μM. The incubation was carried out under shaking at 25 °C for 1 h followed by centrifugation at 21100 × g for 30 min. The supernatant was analyzed by UPLC/MS for the quantification of the dissolved compound (in μM) by UV at a specific wavelength (215 nm). […] The UPLC/MS analyses were performed on a Waters ACQUITY UPLC/MS system consisting of a single quadrupole detector (SQD) Mass Spectrometer (MS) equipped with an Electrospray Ionization (ESI) interface and a Photodiode Array Detector (PDA). The PDA range was 210–400 nm. ESI in positive mode was used in the mass scan range of 100–650 Da. The analyses were run on an ACQUITY UPLC BEH C18 column (50 × 2.1 mm ID, particle size 1.7 μm) with a VanGuard BEH C18 precolumn (5 × 2.1 mm ID, particle size 1.7 μm), using 10 mM NH4OAc in H2O at pH 5 adjusted with AcOH (A) and 10 mM NH4OAc in MeCN/H2O (95:5) at pH 5 (B) as the mobile phase. Values are reported as mean values of ≥2 experiments performed.

[4] = In vitro microsomal stability study; assay type: in vitro ADME; conditions: pH 7.4; mouse liver microsomes; read-out: m-LM t1/2
Description: Freshly prepared 10 mM MeCN stock solution of test compound was preincubated at 37 °C for 15 min with mouse liver microsomes added in 0.1 M Tris HCl buffer (pH 7.4). The final concentration was 4.6 μM. After preincubation, the cofactors (NADPH, G6P, G6PDH, and MgCl2 predissolved in 0.1 M Tris HCl) were added to the incubation mixture, and the incubation was continued at 37 °C for 1 h. At each time point (0, 5, 15, 30, and 60 min), 30 μL of incubation mixture was diluted with 200 μL of cold MeCN spiked with 200 nM internal standard followed by centrifugation at 3300 × g for 15 min. The supernatant was further diluted with H2O (1:1) for analysis. The concentration of the test compound was quantified by LC/MS/MS on a Waters ACQUITY UPLC/MS TQD system consisting of a TQD MS equipped with an ESI interface. The analyses were run on an ACQUITY UPLC BEH C18 (50 × 2.1 mm ID, particle size 1.7 μm) with a VanGuard BEH C18 precolumn (5 × 2.1 mm ID, particle size 1.7 μm) at 40 °C. For each compound, the appropriate mobile phase was chosen. ESI was applied in positive mode. The percentage of test compound remaining at each time point relative to t = 0 was calculated. t1/2 was determined by a one-phase decay equation using a nonlinear regression of compound concentration vs time. Values are the mean of at least two independent experiments performed in two technical replicates.

[5] = read-out: mouse plasma stability t1/2
[6] = supplementary csv, read-out: hAC, IC50
[7] = hAC expressed in HEK-293 cells, read-out: hAC IC50 (μM)±SD

| Compound | solubility at 1 h [3] | IC50 (AC; [7]) | half-life at 2 µM ([2]; read-out: m-plasma t1/2) | half-life at 1 h, 4.6 µM [4] | other results |
| --- | --- | --- | --- | --- | --- |
| O=C(NCCCCc1ccccc1)n1c(=O)oc2ccncc21 [8a, 2-Oxo-N-(4-phenylbutyl)oxazolo[4,5-c]pyridine-3-carboxamide] |  |  |  |  | IC50 (AC; read-out: hAC IC50): 0.006 µM; half-life at 1 μM ([1]; PBS, pH 7.4): < 15 min |
| O=C(NCCCCc1ccccc1)n1c(=O)oc2cnccc21 [8b, 2-Oxo-N-(4-phenylbutyl)oxazolo[5,4-c]pyridine-1-carboxamide] |  |  |  |  | IC50 (AC; read-out: hAC IC50): 0.003 µM; half-life at 1 μM ([1]; PBS, pH 7.4): < 15 min |
| O=C(NCCCCc1ccccc1)n1c2c(oc1=O)CCNC2 [12b, 2-Oxo-N-(4-phenylbutyl)-4,5,6,7-tetrahydrooxazolo[4,5-c]pyridine-3-carboxamide Hydrochloride] | 82 µM |  |  |  | half-life at 2 μM [2, 5]: > 120 min; IC50 (AC; [6]): 0.247 ± 0.156 µM; half-life at 1 μM ([1]; PBS at pH 7.4): > 480 min |
| O=C(NCCCCc1ccccc1)n1c2c(oc1=O)CNCC2 [17b, 2-Oxo-N-(4-phenylbutyl)-4,5,6,7-tetrahydrooxazolo[5,4-c]pyridine-1-carboxamide Hydrochloride] | 230 µM |  |  |  | half-life at 2 μM [2, 5]: > 120 min; IC50 (AC; [6]): 0.341 ± 0.012 µM; half-life at 1 μM ([1]; PBS at pH 7.4): > 480 min |
| CCN1CCN(c2ccc3c(c2)oc(=O)n3C(=O)NCCCCc2ccccc2)CC1 [23g, 6-(4-Ethylpiperazin-1-yl)-2-oxo-N-(4-phenylbutyl)-1,3-benzoxazole-3-carboxamide] | < 1 µM | 0.056 ± 0.006 µM |  |  | half-life at 2 μM ([2]; read-out: m-plasma t1/2): < 5 min; half-life at 4.6 μM [4]: < 5 min; fold more potent than 23e (hAC) (AC): ~7 fold |
| CN1CCN(c2ccc3c(c2)oc(=O)n3C(=O)NCCCCc2ccccc2)CC1=O [23j, 6-(4-Methyl-3-oxo-piperazin-1-yl)-2-oxo-N-(4-phenylbutyl)-1,3-benzoxazole-3-carboxamide] | < 1 µM | 0.092 ± 0.026 µM | 20 min | 30 min |  |
| CN1CCN(c2ccc3c(c2)oc(=O)n3C(=O)NCCCCc2ccccc2)C(=O)C1 [23k, 6-(4-Methyl-2-oxo-piperazin-1-yl)-2-oxo-N-(4-phenylbutyl)-1,3-benzoxazole-3-carboxamide] | 20 µM (≈ 8.45 µg/mL) | 0.052 ± 0.04 µM | 20 min |  | half-life at 4.6 μM [4]: < 5 min; fold more potent than 23e (hAC) (AC): ~7 fold |
| CC(C)CNC(=O)n1c(=O)oc2ccc(C3CCN(C)CC3)cc21 [24c, N-Isobutyl-5-(1-methyl-4-piperidyl)-2-oxo-1,3-benzoxazole-3-carboxamide] | 60 µM (≈ 19.9 µg/mL) | 0.295 ± 0.06 µM | 30 min | 40 min |  |
| CC(C)CNC(=O)n1c(=O)oc2c(C3CCN(C)CC3)cccc21 [compound 25, N-Isobutyl-7-(1-methyl-4-piperidyl)-2-oxo-1,3-benzoxazole-3-carboxamide] | 230 µM (≈ 76.2 µg/mL) | 0.535 ± 0.073 µM | 40 min | 30 min |  |
